Laboratory results as given in publication PMC9870012 (Journal of Enzyme Inhibition and Medicinal Chemistry, 2023).

Key:
human meprin α = molecular target: T1, human meprin α (Homo sapiens, UniProt Q16819); assay type: biochemical; settings: for Ki: Ki(app) Meprin α, geometric mean of three independent experiments with standard deviation factor; for SF: selectivity factor (Ki(app) meprin β/Ki(app) meprin α): meprin α over meprin β
T1 sequence (Q16819 66-746): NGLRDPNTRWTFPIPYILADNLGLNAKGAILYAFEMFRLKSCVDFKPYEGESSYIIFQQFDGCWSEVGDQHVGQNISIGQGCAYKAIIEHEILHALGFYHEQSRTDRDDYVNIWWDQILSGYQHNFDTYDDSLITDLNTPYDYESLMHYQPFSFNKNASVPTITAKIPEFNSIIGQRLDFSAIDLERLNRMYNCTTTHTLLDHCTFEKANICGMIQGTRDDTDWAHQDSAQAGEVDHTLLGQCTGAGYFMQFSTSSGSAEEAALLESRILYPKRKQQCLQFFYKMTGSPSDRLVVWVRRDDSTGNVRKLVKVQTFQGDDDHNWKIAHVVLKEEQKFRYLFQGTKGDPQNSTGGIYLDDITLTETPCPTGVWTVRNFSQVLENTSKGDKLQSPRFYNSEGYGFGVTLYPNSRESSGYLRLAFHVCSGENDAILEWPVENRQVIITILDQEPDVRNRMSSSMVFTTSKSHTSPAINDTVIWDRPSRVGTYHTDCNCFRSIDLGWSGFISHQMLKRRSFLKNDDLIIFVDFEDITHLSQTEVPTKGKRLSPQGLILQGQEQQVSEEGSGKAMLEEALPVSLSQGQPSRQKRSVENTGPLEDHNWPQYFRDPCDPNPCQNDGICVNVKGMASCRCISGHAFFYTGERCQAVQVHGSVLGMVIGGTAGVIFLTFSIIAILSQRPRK

human meprin β = molecular target: T2, human meprin β (Homo sapiens, UniProt Q16820); assay type: biochemical; settings: for Ki: Ki(app) Meprin β, geometric mean of three independent experiments with standard deviation factor; for fold increase in potency against meprin β: compared to 21e
T2 sequence (Q16820 62-701): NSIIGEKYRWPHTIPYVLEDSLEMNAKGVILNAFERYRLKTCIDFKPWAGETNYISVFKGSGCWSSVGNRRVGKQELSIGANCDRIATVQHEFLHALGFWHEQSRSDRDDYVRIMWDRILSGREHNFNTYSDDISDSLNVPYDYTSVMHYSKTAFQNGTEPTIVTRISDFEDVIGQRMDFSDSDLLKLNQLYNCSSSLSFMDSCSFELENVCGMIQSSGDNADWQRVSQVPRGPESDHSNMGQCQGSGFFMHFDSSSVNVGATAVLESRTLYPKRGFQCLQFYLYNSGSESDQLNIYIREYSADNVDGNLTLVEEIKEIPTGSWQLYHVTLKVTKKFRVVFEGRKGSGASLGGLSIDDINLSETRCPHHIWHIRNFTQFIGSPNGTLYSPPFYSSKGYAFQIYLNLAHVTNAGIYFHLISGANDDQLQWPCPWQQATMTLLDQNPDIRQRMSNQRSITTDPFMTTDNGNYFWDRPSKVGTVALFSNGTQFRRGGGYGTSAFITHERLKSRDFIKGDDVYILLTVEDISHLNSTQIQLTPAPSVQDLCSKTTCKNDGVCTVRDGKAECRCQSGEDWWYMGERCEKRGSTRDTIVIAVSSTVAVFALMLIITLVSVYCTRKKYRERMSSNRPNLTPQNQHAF

MMP2 = molecular target: T3, MMP2 (Homo sapiens, UniProt P08253); test: Off-target metalloprotease inhibition, MMP2; assay type: biochemical; settings: read-out: Residual activity MMP2
T3 sequence (P08253 110-660): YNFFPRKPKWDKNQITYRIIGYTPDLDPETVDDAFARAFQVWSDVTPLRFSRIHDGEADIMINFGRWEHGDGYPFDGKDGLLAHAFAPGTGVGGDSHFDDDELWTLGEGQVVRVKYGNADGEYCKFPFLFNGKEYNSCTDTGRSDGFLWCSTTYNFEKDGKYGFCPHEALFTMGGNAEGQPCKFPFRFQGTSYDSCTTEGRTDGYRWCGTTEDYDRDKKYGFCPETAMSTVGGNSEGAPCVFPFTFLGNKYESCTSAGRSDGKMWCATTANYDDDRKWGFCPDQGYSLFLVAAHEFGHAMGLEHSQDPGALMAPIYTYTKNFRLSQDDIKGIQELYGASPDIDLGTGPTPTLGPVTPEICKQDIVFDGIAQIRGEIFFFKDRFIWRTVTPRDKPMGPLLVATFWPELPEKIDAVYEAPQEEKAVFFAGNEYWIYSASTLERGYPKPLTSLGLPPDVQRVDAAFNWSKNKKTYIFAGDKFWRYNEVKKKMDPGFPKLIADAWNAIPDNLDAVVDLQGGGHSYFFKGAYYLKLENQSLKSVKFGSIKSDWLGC

MMP9 = MMP9 (Homo sapiens, UniProt P14780); test: Off-target metalloprotease inhibition, MMP9; assay type: biochemical; settings: read-out: Residual activity MMP9
MMP9, sequence (P14780 107-707 limits assumed): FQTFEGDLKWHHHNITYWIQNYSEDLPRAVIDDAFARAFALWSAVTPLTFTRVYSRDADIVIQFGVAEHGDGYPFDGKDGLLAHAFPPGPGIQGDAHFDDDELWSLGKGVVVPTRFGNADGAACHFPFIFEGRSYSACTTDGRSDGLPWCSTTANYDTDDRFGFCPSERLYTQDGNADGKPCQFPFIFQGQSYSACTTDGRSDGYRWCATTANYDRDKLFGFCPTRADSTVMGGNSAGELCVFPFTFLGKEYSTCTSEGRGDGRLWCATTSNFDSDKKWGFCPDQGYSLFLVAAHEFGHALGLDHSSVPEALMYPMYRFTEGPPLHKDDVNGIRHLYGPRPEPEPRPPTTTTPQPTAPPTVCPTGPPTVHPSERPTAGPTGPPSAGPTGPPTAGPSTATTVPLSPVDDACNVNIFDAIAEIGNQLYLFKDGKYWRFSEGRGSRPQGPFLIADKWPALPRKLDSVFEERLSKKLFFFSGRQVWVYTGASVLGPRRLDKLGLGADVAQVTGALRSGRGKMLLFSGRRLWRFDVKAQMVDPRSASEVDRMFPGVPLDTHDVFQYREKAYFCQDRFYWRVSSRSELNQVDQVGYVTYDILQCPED

MMP13 = MMP13 (Homo sapiens, UniProt P45452); test: Off-target metalloprotease inhibition, MMP13; assay type: biochemical; settings: read-out: Residual activity MMP13
ADAM10 = molecular target: T4, ADAM10 (Homo sapiens, UniProt O14672); test: Off-target metalloprotease inhibition, ADAM10; assay type: biochemical; settings: read-out: Residual activity ADAM10
T4 sequence (O14672 214-748): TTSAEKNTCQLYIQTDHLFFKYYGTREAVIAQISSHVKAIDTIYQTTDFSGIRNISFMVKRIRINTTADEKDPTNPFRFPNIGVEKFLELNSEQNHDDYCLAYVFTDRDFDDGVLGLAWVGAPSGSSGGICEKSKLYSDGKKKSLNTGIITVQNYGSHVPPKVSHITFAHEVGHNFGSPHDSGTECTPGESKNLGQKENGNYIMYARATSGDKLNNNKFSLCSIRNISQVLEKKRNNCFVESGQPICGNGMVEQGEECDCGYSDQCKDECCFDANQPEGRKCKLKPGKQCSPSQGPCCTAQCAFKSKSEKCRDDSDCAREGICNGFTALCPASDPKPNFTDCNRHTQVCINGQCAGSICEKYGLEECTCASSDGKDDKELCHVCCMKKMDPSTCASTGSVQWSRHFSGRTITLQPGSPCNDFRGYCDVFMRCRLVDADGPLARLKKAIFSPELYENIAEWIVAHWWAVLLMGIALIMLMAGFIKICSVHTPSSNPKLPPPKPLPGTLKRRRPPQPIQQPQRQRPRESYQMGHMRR

ADAM17 = ADAM17 (Homo sapiens, UniProt P78536); test: Off-target metalloprotease inhibition, ADAM17; assay type: biochemical; settings: read-out: Residual activity ADAM17
ADAM17, sequence (P78536 215-824): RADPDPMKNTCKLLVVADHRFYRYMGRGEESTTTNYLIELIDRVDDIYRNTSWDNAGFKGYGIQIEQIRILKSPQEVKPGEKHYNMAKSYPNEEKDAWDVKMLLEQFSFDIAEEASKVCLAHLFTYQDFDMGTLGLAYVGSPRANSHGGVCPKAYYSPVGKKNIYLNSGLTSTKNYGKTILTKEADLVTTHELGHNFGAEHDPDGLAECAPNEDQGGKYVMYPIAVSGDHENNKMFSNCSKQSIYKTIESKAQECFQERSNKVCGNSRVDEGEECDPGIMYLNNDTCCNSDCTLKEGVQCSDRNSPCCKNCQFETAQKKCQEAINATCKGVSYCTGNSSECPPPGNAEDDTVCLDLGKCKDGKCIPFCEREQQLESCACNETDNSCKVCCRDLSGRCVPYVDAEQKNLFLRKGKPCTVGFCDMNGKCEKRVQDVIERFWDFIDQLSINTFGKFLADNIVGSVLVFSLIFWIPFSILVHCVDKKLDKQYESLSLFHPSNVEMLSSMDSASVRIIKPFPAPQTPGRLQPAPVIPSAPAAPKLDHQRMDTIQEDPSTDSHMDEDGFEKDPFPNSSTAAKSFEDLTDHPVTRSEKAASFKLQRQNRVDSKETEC

Cell viability assay [1] = assay type: cell-based; settings: human, Hep-G2 cells
Cell viability assay [2] = assay type: cell-based; settings: human, SH-SY5Y cells
MMPs and ADAMs = test: Off-target metalloprotease panel; assay type: biochemical, human; settings: 10 µM inhibitor concentration

Compound | Ki (human meprin α) | SF: selectivity factor (Ki(app) meprin β/Ki(app) meprin α) (human meprin α) | Ki (human meprin β) | fold increase in potency against meprin β (human meprin β) | remaining activity at 10 µM (MMP2) | remaining activity at 10 µM (MMP9) | remaining activity at 10 µM (MMP13) | remaining activity at 10 µM (ADAM10) | remaining activity at 10 µM (ADAM17) | activity against meprin β dropped by factor (human meprin β; compared to 21i) | fold improved activity against meprin α (human meprin α; compared to 21e) | viability at 24 h, 30 µM (Cell viability assay [1]) | viability at 24 h, 30 µM (Cell viability assay [2]) | residual activities of the respective MMPs and ADAMs (MMPs and ADAMs)
O=C(Cc1c(-c2cc(F)c(O)c(Cl)c2)n[nH]c1-c1ccccc1)NO [14m, 2-[3-(3-Chloro-5-fluoro-4-hydroxyphenyl)-5-phenyl-1H-pyrazol-4-yl]ethanehydroxamic acid] | 100 pM | 3 | 400 pM | – | 66% | 86% | 88% | 104% | 68% | – | – | 103% | 86% | –
O=C(Cc1c(-c2cccc(C(=O)O)c2)n[nH]c1-c1cc(F)c(O)c(Cl)c1)NO [16j, 3-[5-(3-Chloro-5-fluoro-4-hydroxy-phenyl)-4-[2-(hydroxyamino)-2-oxo-ethyl]-1H-pyrazol-3-yl]benzoic acid] | 100 pM | 2 | 200 pM | – | 95% | 94% | 105% | 90% | 99% | – | – | 98% | 110% | above 90%
O=C(Cc1c(-c2ccccc2)nn(Cc2ccc(Cl)c(O)c2F)c1-c1ccccc1)NO [21i, 2-[1-[(4-Chloro-2-fluoro-3-hydroxy-phenyl)methyl]-3,5-diphenyl-pyrazol-4-yl]ethane-hydroxamic acid] | – | 116 | 9300 pM | – | 69% | 70% | 84% | 85% | 72% | – | – | 107% | 79% | –

Continued, in another order:

Ki (human meprin α) | SF: selectivity factor (Ki(app) meprin β/Ki(app) meprin α) (human meprin α) | Ki (human meprin β) | fold increase in potency against meprin β (human meprin β) | remaining activity at 10 µM (MMP2) | remaining activity at 10 µM (MMP9) | remaining activity at 10 µM (MMP13) | remaining activity at 10 µM (ADAM10) | remaining activity at 10 µM (ADAM17) | activity against meprin β dropped by factor (human meprin β; compared to 21i) | fold improved activity against meprin α (human meprin α; compared to 21e) | Compound | viability at 24 h, 30 µM (Cell viability assay [1]) | viability at 24 h, 30 µM (Cell viability assay [2]) | residual activities of the respective MMPs and ADAMs (MMPs and ADAMs)
400 pM | 24 | 9400 pM | 30 fold | 85% | 80% | 86% | 91% | 67% | – | – | O=C(Cc1c(-c2ccccc2)nn(Cc2ccc(C(=O)O)cc2)c1-c1ccccc1)NO [21h, 4-[[4-[2-(Hydroxyamino)-2-oxo-ethyl]-3,5-diphenyl-pyrazol-1-yl]methyl]benzoic acid] | 103% | 88% | –
– | 7892 | – | – | 102% | 100% | 98% | 117% | 90% | ~120 | – | O=C(CCc1c(-c2ccccc2)nn(Cc2ccc(Cl)c(O)c2F)c1-c1ccccc1)NO [compound 22, 3-[1-[(4-Chloro-2-fluoro-3-hydroxy-phenyl)methyl]-3,5-diphenyl-pyrazol-4-yl]propane-hydroxamic acid] | 100% | 98% | –
300 pM | 35 | 10600 pM | 30 fold | 89% | 83% | 83% | 92% | 84% | – | 3 fold | O=C(Cc1c(-c2ccccc2)nn(Cc2cccc(C(=O)O)c2)c1-c1ccccc1)NO [21g, 3-[[4-[2-(Hydroxyamino)-2-oxo-ethyl]-3,5-diphenyl-pyrazol-1-yl]methyl]benzoic acid] | 99% | 85% | –
